According to patent publication US20250002473A1, “QUINOXALINE DERIVED SULFONAMIDES WITH EGFR DEGRADATION ACTIVITIES AND THEIR USES THEREOF” (Accutar Biotechnology Inc., priority 2023, published 2025):
Like-named read-outs stand apart in the source and are kept apart here.

Key:
Type in all cases: cell-based
A431 (EGFR_WT) = molecular target: T1, A431 (EGFR_WT) (Homo sapiens, UniProt P00533); test: EGFR degradation assay (western blot), A431 cells
T1 construct: endogenous in cells; host or cells: A431, NCI-H2073, NCI-H292
T1 sequence (P00533 25-1210): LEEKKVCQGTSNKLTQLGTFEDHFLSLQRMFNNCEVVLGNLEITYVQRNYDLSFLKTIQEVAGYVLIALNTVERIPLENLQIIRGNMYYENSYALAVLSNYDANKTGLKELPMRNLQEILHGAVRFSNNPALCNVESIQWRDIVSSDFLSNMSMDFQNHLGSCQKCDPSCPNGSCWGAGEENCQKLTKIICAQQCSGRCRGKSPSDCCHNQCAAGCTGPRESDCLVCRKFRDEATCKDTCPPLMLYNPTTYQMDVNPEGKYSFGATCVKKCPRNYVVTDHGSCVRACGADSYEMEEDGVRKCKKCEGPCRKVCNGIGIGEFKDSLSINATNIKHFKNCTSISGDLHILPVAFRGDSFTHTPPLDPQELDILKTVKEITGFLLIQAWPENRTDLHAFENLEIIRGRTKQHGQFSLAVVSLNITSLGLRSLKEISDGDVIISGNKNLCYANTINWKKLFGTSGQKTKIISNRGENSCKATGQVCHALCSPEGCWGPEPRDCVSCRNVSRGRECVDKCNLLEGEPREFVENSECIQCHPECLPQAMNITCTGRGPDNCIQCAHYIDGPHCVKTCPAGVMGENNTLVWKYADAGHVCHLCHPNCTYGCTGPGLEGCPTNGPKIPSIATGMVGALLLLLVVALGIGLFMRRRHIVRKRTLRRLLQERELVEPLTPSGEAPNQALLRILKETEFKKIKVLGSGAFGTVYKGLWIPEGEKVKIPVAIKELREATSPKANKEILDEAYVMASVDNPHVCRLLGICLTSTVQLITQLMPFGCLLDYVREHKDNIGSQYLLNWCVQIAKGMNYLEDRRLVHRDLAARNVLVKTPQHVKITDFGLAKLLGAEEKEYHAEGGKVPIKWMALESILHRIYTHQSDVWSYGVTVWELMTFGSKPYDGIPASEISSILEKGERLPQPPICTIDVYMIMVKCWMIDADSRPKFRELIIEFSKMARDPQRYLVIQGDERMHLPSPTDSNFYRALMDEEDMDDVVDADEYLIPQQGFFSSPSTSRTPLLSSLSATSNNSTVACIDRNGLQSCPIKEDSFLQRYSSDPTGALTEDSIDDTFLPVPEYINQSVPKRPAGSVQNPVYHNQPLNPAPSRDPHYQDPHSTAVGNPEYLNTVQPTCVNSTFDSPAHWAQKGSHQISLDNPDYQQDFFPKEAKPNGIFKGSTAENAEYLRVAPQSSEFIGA
How it was run: (§1)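 Cells seeded overnight, then exposed to compounds for 24 h; lysates run on western blot, EGFR probed with tubulin loading control and fluorescent secondary detection. DC50 = concentration giving 50% EGFR degradation.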

BaF3_YVMA = test: Cell growth inhibition assay (CellTiter-Glo), BaF3_YVMA
Method: Cells were seeded in a 96-well plate (Corning 3610) with 90 μL of culture medium per well, and plates were incubated at 37° C. overnight. A 1,000× DMSO stock solution of the desired compound was prepared the following day. A compound dilution plate was prepared by diluting the stock solution 1:100 in the corresponding cell culture medium, 10 μL of the diluted compound solution was added to each 96-well plate well containing the seeded cells. […] The content of the wells was mixed by shaking continuously for 10 min, and luminescence was measured using Envision (PerkinElmer). The data were analyzed with GraphPad Prism 9 (see FIG. 50).
Table 6, Table 7, and Table 8 list the cell growth inhibition results, where Gls0 represents the compound concentration to cause 50% cell growth inhibition in comparison with DMSO.

NCl-H292 (EGFR_WT) = molecular target: T2, NCl-H292 (EGFR_WT) (Homo sapiens, UniProt P00533); test: EGFR degradation assay (western blot), NCl-H292 cells; conditions: Table 5; NCI-H292 cells (EGFR_WT), 24 h
T2 construct: endogenous in cells; host or cells: A431, NCI-H2073, NCI-H292
T2 sequence (P00533 25-1210): as above
Method: A431 (EGFR_WT), NCl-H2073 (EGFR_WT), NCl-H292 (EGFR_WT), BaF3_YVAM (Her2_A775insYVAM), BaF3_SVD (EGFR_D770insSVD), BaF3_ASV (EGFR_A776inASV), or BaF3_DTC (EGFR_Exon19del/T790M/C797S) cells were seeded in a 24-well plate at a density of 4×10^5 cells per well for EGFR WT cells and 8× cells per well for EGFR or Her2 mutant cells, and the plates were incubated overnight. The cells were treated with the desired compounds for 24 h. The culture medium was removed, and 100 μL of RIPA buffer (Beyotime, P0013B) containing 1% Protease Inhibitor Cocktail (Bimake, B14001), 1% Phosphatase Inhibitor Cocktail 2 (Sigma, P5726), and 1% Phosphatase Inhibitor Cocktail 3 (Sigma, P0044) were added to lyse the cells. Then, the cell lysates were transferred to 1.5 mL microcentrifuge tubes and centrifuged at 12,000 rpm and 4° C. for 30 min. The supernatants were transferred into new tubes, and the protein concentration was determined using the BCA protein quantification method. All samples were diluted to the same concentration using RIPA buffer, loading buffer was added, samples were denatured, and 15 μg of protein per lane was loaded onto a SurePAGE 4-20% Bis-Tris gel. Samples were separated via electrophoresis in MOPS running buffer at 180 V for 100 min. […] Fluorescence was detected using the Odyssey CLx Imaging System, and the data were analyzed with Empiria Studio Software and GraphPad Prism 9. […]

[1] = molecular target: T3, BaF3_ASV (EGFR_A776inASV) (Homo sapiens, UniProt P00533, DUP767-769); test: EGFR degradation assay (western blot), BaF3_ASV cells; conditions: for DC50: BaF3_ASV cells
T3 construct: expressed in transfected cells; host or cells: Ba/F3 (engineered)
T3 sequence (P00533 with tags, fused parts or gaps DUP767-769): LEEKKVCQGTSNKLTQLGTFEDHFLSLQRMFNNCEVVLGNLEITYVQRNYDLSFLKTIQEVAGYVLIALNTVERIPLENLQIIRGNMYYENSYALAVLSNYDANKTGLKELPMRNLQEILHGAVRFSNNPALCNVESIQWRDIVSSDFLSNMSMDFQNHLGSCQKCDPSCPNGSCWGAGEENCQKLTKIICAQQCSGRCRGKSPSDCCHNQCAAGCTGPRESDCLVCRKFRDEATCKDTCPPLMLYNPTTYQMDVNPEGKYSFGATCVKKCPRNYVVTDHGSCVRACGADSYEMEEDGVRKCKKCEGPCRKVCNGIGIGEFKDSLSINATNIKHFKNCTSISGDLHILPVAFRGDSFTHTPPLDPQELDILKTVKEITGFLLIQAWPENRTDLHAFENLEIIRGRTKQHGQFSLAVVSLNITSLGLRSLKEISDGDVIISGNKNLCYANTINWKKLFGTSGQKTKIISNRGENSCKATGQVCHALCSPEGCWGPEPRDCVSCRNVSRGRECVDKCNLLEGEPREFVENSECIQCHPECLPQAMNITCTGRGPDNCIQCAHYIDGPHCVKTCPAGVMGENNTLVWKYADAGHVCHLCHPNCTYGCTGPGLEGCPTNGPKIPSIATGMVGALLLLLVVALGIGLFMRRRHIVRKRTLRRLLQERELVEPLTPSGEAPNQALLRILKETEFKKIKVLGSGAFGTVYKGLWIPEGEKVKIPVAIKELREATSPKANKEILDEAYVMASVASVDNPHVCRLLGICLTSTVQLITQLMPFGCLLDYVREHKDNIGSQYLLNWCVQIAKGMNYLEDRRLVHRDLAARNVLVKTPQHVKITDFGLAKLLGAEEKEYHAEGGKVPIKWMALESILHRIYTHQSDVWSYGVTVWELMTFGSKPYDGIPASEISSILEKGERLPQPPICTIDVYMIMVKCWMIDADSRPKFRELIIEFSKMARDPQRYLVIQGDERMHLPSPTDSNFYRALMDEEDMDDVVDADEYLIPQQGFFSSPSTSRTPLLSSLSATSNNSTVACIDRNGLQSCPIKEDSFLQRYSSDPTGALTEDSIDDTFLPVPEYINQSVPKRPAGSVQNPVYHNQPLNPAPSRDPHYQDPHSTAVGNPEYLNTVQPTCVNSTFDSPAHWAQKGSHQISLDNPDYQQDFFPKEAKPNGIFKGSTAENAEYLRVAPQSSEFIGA
How it was run: as §1

For `CCc1cc(Nc2ncc(Br)c(Nc3ccc4nccnc4c3NS(C)(=O)=O)n2)c(OC)cc1N1CCC(N2CCN(CCc3cccc4c3n(CC)c(=O)n4C3CCC(=O)NC3=O)CC2)CC1` (centres unmarked) [Compound 11, N-(6-((5-bromo-2-((4-(4-(4-(2-(1-(2,6-dioxopiperidin-3-yl)-3-ethyl-2-oxo-2,3-dihydro-1H-benzo[d]imidazol-4-yl)ethyl)piperazin-1-yl)piperidin-1-yl)-5-ethyl-2-methoxyphenyl)amino)pyrimidin-4-yl)amino)quinoxalin-5-yl)methanesulfonamide], the DC50 (A431 (EGFR_WT); Table 5, 24 h, read-out: DC50 (nM), 24 h, A431) was > 1000 nM, the DC50 (A431 (EGFR_WT); compounds 24 h, western blot, read-out: A431 DC50) was > 1000 nM and the “Potency in cell growth inhibition compared with Compound A (BaF3_YVMA)” value (BaF3_YVMA; BaF3_YVMA, comparison with Compound A, in words) was “significantly increased potency”. For the same compound, the GI50 (BaF3_YVMA; Table 7, BaF3_YVMA cells, head prints 24 h) was 188 nM, the DC50 (NCl-H292 (EGFR_WT)) was > 1000 nM and the DC50 ([1]; compounds 24 h, western blot, read-out: BaF3_ASV DC50) was 22.4 nM. The “Potency in degrading EGFR exon20 insertion mutant form compared with Compound A (BaF3_ASV)” value ([1]; BaF3_ASV, comparison with Compound A, in words) was “significantly increased potency” and the DC50 ([1]; Table 5, 24 h, read-out: DC50 (nM), 24 h, BaF3_ASV) was 22.4 nM.
